Where two headings read alike, the source gives them in different places. Blank lines part the entries; values can stand above or below the compound they belong to.
Columns and labels:
[1] = assay type: in vivo, human; settings: for AUC(0-inf) / AUC(0-t) / Cmax: human, plasma, 40 mg, adjusted G mean, linear mixed effects model; for AUC(0-inf): AUCinf; for AUC(0-t): AUClast
[2] = aqueous solution; cited from earlier work
[3] = assay type: in vivo, human; settings: for decrease in Cmax: with rabeprazole vs asciminib alone
[4] = assay type: in vitro ADME; settings: for dissolution rate: 40 mg asciminib, 900 ml, 37°C
[5] = 40 mg asciminib b.i.d., cited from earlier work
[6] = In vitro binding constant of asciminib and cyclodextrin; assay type: physicochemical
[7] = weak base; cited from earlier work
[8] = cited from earlier work
[9] = administered concomitantly with an itraconazole capsule formulation; cited from earlier work
[10] = oral, Cohort 2, asciminib ± quinidine
[11] = oral, Cohort 3, asciminib ± rifampicin
[12] = oral, Cohort 5, asciminib ± clarithromycin
[13] = po, Cohort 1, asciminib ± itraconazole (oral solution)
[14] = with clarithromycin vs asciminib alone, cohort 5
[15] = with itraconazole (oral solution) vs asciminib alone, cohort 1
[16] = with itraconazole oral solution vs asciminib alone
[17] = with quinidine vs asciminib alone, cohort 2
[18] = with rifampicin vs asciminib alone, cohort 3

AUC(0-inf) [1, 10]: 6750 ng·h/mL | AUC(0-inf) [1, 11]: 5630 ng·h/mL | AUC(0-inf) [1, 12]: 5740 ng·h/mL | AUC(0-t) [1, 10]: 6700 ng·h/mL | AUC(0-t) [1, 11]: 5400 ng·h/mL | AUC(0-t) [1, 12]: 5670 ng·h/mL | Cmax [1, 10]: 618 ng/mL | Cmax [1, 11]: 559 ng/mL | AUC(0-inf) [1, 13]: 7000 ng·h/mL | AUC(0-t) [1, 13]: 6950 ng·h/mL | Cmax [1, 13]: 679 ng/mL | increase in asciminib exposure ([1]; with clarithromycin vs asciminib alone): ~ 35% | increase in AUCinf [1, 14]: 36% | increase in AUClast [1, 14]: 37% | increase in Cmax [1, 14]: 19% | decrease in G mean of AUCinf [1, 15]: 40.2% | decrease in G mean of AUClast [1, 15]: 41.2% | increase in asciminib exposure ([1]; with itraconazole capsule vs asciminib alone): ~ 3% | decrease in asciminib Cmax [1, 16]: ~ 50% | decrease in asciminib exposure (AUC) [1, 16]: ~ 40% | decrease in asciminib Cmax ([1]; with itraconazole oral solution vs asciminib alone, listed as asciminib): 50.1% | decrease in asciminib AUC ([1]; with quinidine vs asciminib alone): 13–16% | decrease in AUCinf [1, 17]: 12.9% | decrease in AUClast [1, 17]: 16.0% | decrease in Cmax [1, 17]: 11.3% | decrease in asciminib AUC (exposure) ([1]; with rifampicin vs asciminib alone): 13–15% | decrease in AUCinf [1, 18]: 14.9% | decrease in AUClast [1, 18]: 12.7% | increase in Cmax [1, 18]: 9% | decrease in asciminib AUC (exposure) ([1]; with rifampicin vs asciminib alone, listed as asciminib): 15% | AUC(0-inf) ([3]; human, plasma, oral, 40 mg): 9850 ng·h/mL | AUC(0-t) ([3]; human, plasma, oral, 40 mg): 9200 ng·h/mL | Cmax ([3]; human, plasma, oral, 40 mg): 943 ng/mL | AUC(0-inf) ([3]; human, plasma, po, 40 mg): 9850 ng·h/mL | AUC(0-t) ([3]; human, plasma, po, 40 mg): 9200 ng·h/mL | Cmax ([3]; human, plasma, po, 40 mg): 943 ng/mL | half-life ([3]; human, plasma, po, 40 mg): 12.6 h | decrease in Cmax [3]: 9% | decrease in Cmax ([3]; listed as asciminib): ~ 9% | dissolution rate ([4]; FaSSIF V2 media alone): 87% | flux ([4]; FaSSIF V2 media alone, acceptor volume 12 ml): 1.29 µg/min | calculated flux ([4]; FaSSIF V2 media alone, membrane area 3.88 cm^2): 0.332 μg/min*cm^2 | dissolution rate ([4]; FaSSIF V2 media with added cyclodextrin): 105% | calculated flux ([4]; FaSSIF V2 plus cyclodextrin): 0.071 μg/min*cm^2 | flux rate ([4]; FaSSIF V2 plus cyclodextrin): 0.28 µg/min | decrease of asciminib flux through a lipid membrane ([4]; by cyclodextrin): ~ 80% | drop in binding constant ([6]; FaSSIF V2 and 0.3× FeSSIF V2 vs buffer): ~ 65 fold | binding to cyclodextrin ([6]; acidic pH of FaSSGF and high bile component concentration of FeSSIF V2): practically no binding
Structure (SMILES): O=C(Nc1ccc(OC(F)(F)Cl)cc1)c1cnc(N2CC[C@@H](O)C2)c(-c2ccn[nH]2)c1 [Asciminib]
pH-dependent solubility [2]: high at acidic pH and decreases with increasing pH | AUC0–12 h at steady-state, G mean ([5]; Japanese subjects (n = 5), GCV% 22.8): 6450 ng·h/mL | AUC0–12 h at steady-state, G mean ([5]; non-Japanese subjects (n = 8), GCV% 39.4): 5370 ng·h/mL | pK a [7]: 4.0

Structure (SMILES): C[C@H]1CN(C2COC2)CCN1c1ccc(Nc2cc(-c3ccnc(N4CCn5c(cc6c5CC(C)(C)C6)C4=O)c3CO)cn(C)c2=O)nc1 [fenebrutinib]
in vitro binding constant with cyclodextrin [8]: 200,000 /M

Structure (SMILES): CCc1cc(/C(C)=N/OCc2ccc(C3CCCCC3)c(C(F)(F)F)c2)ccc1CN1CC(C(=O)O)C1 [siponimod]
decrease in exposure [9]: 10%–24%
